Measured values from patent publication US9228015B2, “Nogo receptor antagonists and methods of increasing neurite outgrowth” (Biogen Idec MA Inc., priority 2006, dated 2016).

Legend:
[1] = tested on: chick dorsal root ganglion neurons, myelin-induced neurite outgrowth inhibition; experiment: Neurite outgrowth of embryonic day 13 chick DRG neurons on myelin (Example 29); assay type: cell-based; settings: 8 μM NgR(310)ecto-Fc; MP 10 μg/nl as printed
Description: In investigating combined treatment with methyprednisolone (MP) and NgR(310)ecto-Fc for spinal cord injury (SCI), we sought to verify that these reagents have independent mechanisms of action. Briefly, myelin was dried overnight in poly-L-lysine-precoated plates (Becton Dickinson, Bedford, Mass., USA) at 80 or 400 ng/well (2.5 and 12.7 ng/mm^2, respectively). Wells were then coated with 10 µg/ml laminin (Calbiochem, La Jolla, Calif., USA) for 1 hour at foom temperature (22-24 C). Embryonic day 13 chick dorsal root ganglion neurons were dissociated and plated for 6-8 hours as previously described (GrandPre et al., 2000; Fournier et al., 2001). Neurons were treated with 8 μM NgR(310)ecto-Fc in the presence or absence of 10 μg/nl MP (Pharmacia, Kalamazoo, Mich., USA) for the entire outgrowth period. Neurons were then fixed and stained with βIII tubulin antibody (Covance, Princeton, N.J., USA) and neurite outgrowth was quantified using an automated cellular imaging and analysis system (Axon Instrument, Union City, Calif.; USA). Neurite outgrowth per cell was normalized to the average of duplicate control wells for each experiment (n=3). […] These in vitro data support the hypothesis that MP and NgR(310)ecto-Fc will enhance SCI recovery in a sequentially effective manner.

7E11 [2] = experiment: Epitope mapping: 7E11 binding to protease digest peptides of NgR1; set-up: species or system murine; settings: trypsin or Asp-N digest, MS analysis
Text: The 7E11 binding site was further analyzed by testing tryptic peptide digests of sNgR310. […] 7E11 bound only a single tryptic digest peptide, providing additional evidence that 7E11 binds to a single epitope on NgR1. Subsequent mass spectroscopy (MS) and sequence analyses identified the bound peptide to be […] (SEQ ID NO: 26).
The […] peptide (SEQ ID NO: 1) was subjected to further mapping analysis. The peptide was digested with trypsin, which yielded two major fragments, […] (SEQ ID NO: 27) and VVDPTT (SEQ ID NO: 28), and the ability of 7E11 to bind them was tested. […] Within this peptide fraction, detailed MS analysis identified several scrambled peptides that also bound 7E11, including peptides with deamination at Asn115 and Gln117, addition of Alanine at 112 or 113, or addition of Serine at 114 (Table 3).
The […] (SEQ ID NO:1) peptide was also digested with the endoprotease Asp-N and 7E11 binding was tested. Endoprotease Asp-N cleaved the peptide into 3 peptide fragments, L, DLS and […] (SEQ ID NO: 36). Of these products, 7E11 bound the […] (SEQ ID NO:36) peptide. Taken together, the trypsin and Asp-N cleavage data further localize the 7E11 binding epitope to the sequence shared between them, DNAQLR (SEQ ID NO: 37).

7E11 [3] = experiment: 7E11 binding to immobilized point-mutant peptides (MaxiSorp plate, serial dilutions of 7E11); set-up: species or system murine; settings: 7E11 binding to immobilized peptide
Text: To verify these contact points, several peptides containing point mutations within the […] sequence (SEQ ID NO: 27) were generated and tested for 7E11 binding. The peptides were immobilized on a MaxiSorp™ plate (Nunc™) and serial dilutions of 7E11 were applied. […] The most significant change in EC50 was observed when Arg 119 was mutated to Alanine.

[4] = tested on: NogoA, NogoB, NogoC, MAG and OM-gp binding to Nogo receptor-1; experiment: Soluble Nogo receptors block ligand binding to Nogo receptor-1
OM-gp + sNogoR344-Fc = target: T1, OM-gp + sNogoR344-Fc (Rattus norvegicus, UniProt Q99M75, A303T/C287S/C43R/E284G/T53A); experiment: ELISA: inhibition of OM-gp binding to sNogoR344-Fc
T1 construct: amino acid residues 26-344 of rat Nogo receptor-1; made in house; CHO (DG44) is described only for sNogoR310-Fc
T1 sequence (Q99M75 26-344 C43R/T53A/E284G/C287S/A303T): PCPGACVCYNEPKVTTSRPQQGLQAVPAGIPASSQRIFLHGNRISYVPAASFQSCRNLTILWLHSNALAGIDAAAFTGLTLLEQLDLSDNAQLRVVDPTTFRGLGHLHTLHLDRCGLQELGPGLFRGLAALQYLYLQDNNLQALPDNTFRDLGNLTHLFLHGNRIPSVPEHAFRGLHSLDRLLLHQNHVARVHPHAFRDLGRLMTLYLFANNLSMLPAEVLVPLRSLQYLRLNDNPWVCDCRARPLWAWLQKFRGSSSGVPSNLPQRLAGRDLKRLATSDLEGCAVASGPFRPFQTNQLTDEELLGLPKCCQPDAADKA
Description: (§1) 0.5 μg of a soluble Nogo receptor-1 fusion protein comprising amino acid residues 26-344 of rat Nogo receptor-1 and the hinge and Fc region of the rat IgG1 molecule (sNogoR344-Fc) produced as described below was immobilized on […] of protein-A- or wheatgerm agglutinin-conjugated SPA beads (Amersham Pharmacia Biotech) for 2 hours at 25° C. SPA beads coupled with Fc-sNogoR-1, anti-Nogo receptor-1 mAb and 1 μl ^125I-Nogo66 (Amersham, 2000 Ci/mmol, 1 nM) in […] of the HEPES-buffered incubation medium (10 mM HEPES, pH 7.4, 0.1% bovine serum albumin, 0.1% ovalbumin, 2 mM MgCl2, 2 mM CaCl2 and protease inhibitors) was added to each sample well. After 16 hours, radioactivity was measured in quadruplicate samples using a TopCount® (Packard). IC50 values were calculated from a curve-fit analysis (FIG. 3) (PRISM, GraphPad Software, NJ). In some experiments, we also used AP-ligand conjugates (e.g. AP-Nogo66) and detected binding by monitoring alkaline phosphatase activity. We also assayed the ability of the mAbs to block binding of the ligands MAG-Fc and AP-OM-gp to Nogo receptor-1.
(§2) Monoclonal antibodies 7E11, 5B10, 1H2, 3G5 and 2F7 all inhibited binding of Nogo66, MAG and OM-gp to sNogoR344-Fc. The calculated IC50 for Nogo66 for 7E11 and 1H2 were 400 nM and 60 nM, respectively. The data from ELISAs monitoring mAb-mediated inhibition of binding of the three ligands to Nogo receptor-1 are summarized in Table 6.
(§3) The percent displacement is shown at 30 nM antibody and the EC50 for certain mAbs determined from curve-fit analysis as described. “-” indicates no detectable activity and “ND” indicates not determined.
(§4) We also performed ELISA binding assays using the Fab-phage 141)5.

[5] = target: T2, panel of Nogo receptor-1 polypeptides (sNogoR310-Fc, sNogoR344-Fc, p-617, p-618, p-4, p-5) (Rattus norvegicus, UniProt Q99M75); experiment: Antibody specificity ELISA with a panel of Nogo receptor-1 polypeptides; assay type: binding
T2 construct: made in house
Text: To determine the specificity of the monoclonal and Fab-phage antibodies produced in Examples 1 and 2, we performed an ELISA using a panel of Nogo receptor-1 polypeptides. The panel consisted of sNogoR310-Fc (a fusion protein comprising amino acids 26-310 of rat Nogo receptor-1 and a rat Fc fragment), sNogoR344-Fc (see supra), polypeptide p-617 (SEQ ID NO: 1), polypeptide p-618 (a 19-amino acid polypeptide from the LRR7 region of rat Nogo receptor-1; FIG. 2; SEQ ID NO: 11) and polypeptides p-4 and p-5 (polypeptides from the LRR5 and LRRCT regions of Nogo receptor-1, respectively). Ovalbumin and BSA were used as controls.

MAG + sNogoR344-Fc = target: T3, MAG + sNogoR344-Fc (Rattus norvegicus, UniProt Q99M75, A303T/C287S/C43R/E284G/T53A); experiment: ELISA: inhibition of MAG binding to sNogoR344-Fc
T3 construct: amino acid residues 26-344 of rat Nogo receptor-1; made in house; CHO (DG44) is described only for sNogoR310-Fc
T3 sequence (Q99M75 26-344 C43R/T53A/E284G/C287S/A303T): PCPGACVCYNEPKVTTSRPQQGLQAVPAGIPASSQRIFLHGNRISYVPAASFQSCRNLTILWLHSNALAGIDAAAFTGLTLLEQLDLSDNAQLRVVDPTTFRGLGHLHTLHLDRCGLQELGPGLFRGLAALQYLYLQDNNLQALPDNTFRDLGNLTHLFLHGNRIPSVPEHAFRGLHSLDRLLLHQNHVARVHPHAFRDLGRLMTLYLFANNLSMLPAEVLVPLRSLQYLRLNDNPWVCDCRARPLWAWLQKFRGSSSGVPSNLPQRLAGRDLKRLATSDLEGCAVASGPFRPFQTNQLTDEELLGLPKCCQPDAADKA
Description: as §1, §2, §3, §4

[6] = tested on: DRG neurons, myelin-mediated inhibition of neurite outgrowth; experiment: Neurite outgrowth assay, P3-4 rat DRG neurons, myelin mixed with test protein (Example 10); assay type: cell-based; settings: mixed with CNS myelin, FIGS. 9-11
Description: Lab-Tek® culture slides (4 wells) were coated with 0.1 mg/ml poly-D-lysine (Sigma®). CNS myelin alone or mixed with sNogoR310, sNogoR310-Fc fusion protein, mAb 5B10 or control PBS were separately spotted as 3 μl drops. Fluorescent microspheres (Polysciences) were added to the myelin/PBS to allow later identification of the drops (Grandpre et al., Nature 403:439-444 (2000)). Lab-Tek® slides were then rinsed and coated with 10 μg/ml laminin (Gibco™).
Dorsal root ganglions (DRG's) from P3-4 Sprague Dawley rat pups were dissociated with 1 mg/ml collagenase type 1 (Worthington), triturated with fire-polished Pasteur pipettes pre-plated to enrich in neuronal cells and finally plated at 23,000 cells/well on the pre-coated Labtek culture slides. The culture medium was F12 containing 5% heat inactivated donor horse serum, 5% heat inactivated fetal bovine serum and 50 ng/ml mNGF and incubated at 37° C. and 5% CO2 for 6 hours.
Slides were fixed for 20 minutes with 4% paraformaldehyde containing 20% sucrose and stained for the neuronal marker anti beta-III-tubulin (Covance TUJ1) diluted 1:500. As secondary antibody anti-mouse Alexa Fluor® 594 (Molecular Probes) was diluted 1:300 and slides were coverslipped with Gel/Mount™ (Biømeda™). 5× digital images were acquired with OpenLab™ software and analyzed by using the MetaMorph® software for quantification of neurite outgrowth.

Nogo66 + sNogoR344-Fc = target: T4, Nogo66 + sNogoR344-Fc (Rattus norvegicus, UniProt Q99M75, A303T/C287S/C43R/E284G/T53A); experiment: ELISA: inhibition of Nogo66 binding to sNogoR344-Fc
T4 construct: amino acid residues 26-344 of rat Nogo receptor-1; made in house
T4 sequence (Q99M75 26-344 C43R/T53A/E284G/C287S/A303T): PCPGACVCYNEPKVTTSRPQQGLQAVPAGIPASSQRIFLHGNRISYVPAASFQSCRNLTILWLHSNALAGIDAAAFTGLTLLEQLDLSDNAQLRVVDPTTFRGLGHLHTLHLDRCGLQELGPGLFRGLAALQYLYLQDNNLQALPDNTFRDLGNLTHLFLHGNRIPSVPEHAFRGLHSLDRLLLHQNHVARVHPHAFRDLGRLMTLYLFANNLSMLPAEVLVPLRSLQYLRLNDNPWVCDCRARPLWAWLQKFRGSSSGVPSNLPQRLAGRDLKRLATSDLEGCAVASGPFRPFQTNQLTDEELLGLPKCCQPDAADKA
Description: as §1, §2, §3, §4

Molecule: C[C@H]1C[C@@H]2[C@H]([C@@H](O)C[C@@]3(C)[C@H]2CC[C@]3(O)C(=O)CO)[C@@]2(C)C=CC(=O)C=C12 [MP, methylprednisolone, reference compound]
- effect on neurite outgrowth on a myelin substrate [1]: no effect

Molecule: AAAFTGLTLLEQLDLSDNAQLR (Rattus) [tryptic digest peptide of sNgR310]
- peptide bound by 7E11 (7E11 [2]): bound

Molecule: DNAQLRVVDPTT (sequence also found in Rattus; listed as Homo Sapiens)
- peptide bound by 7E11 (7E11 [2]): bound

Molecule: LDLSDNAALRVVDPTT [Q117A]
- increase of EC50 relative to the original peptide (7E11 [3]): 30 fold

Molecule: LDLSDNAQLHVVDPTT [R119H]
- increase of EC50 relative to the original peptide (7E11 [3]): 25 fold

Molecule: LDLSDNAQLR (sequence also found in Rattus; listed as Homo Sapiens)
- peptide bound by 7E11 (7E11 [2]): bound

B1: sNogoR344: soluble Nogo receptor-1 polypeptide, residues 26-344 of SEQ ID NOs: 6 and 8 or 27-344 of SEQ ID NO: 8 (protein, listed as Homo sapiens)
chain: PCPGACVCYNEPKVTTSCPQQGLQAVPVGIPAASQRIFLHGNRISHVPAASFRACRNLTILWLHSNVLARIDAAAFTGLALLEQLDLSDNAQLRSVDPATFHGLGRLHTLHLDRCGLQELGPGLFRGLAALQYLYLQDNALQALPDDTFRDLGNLTHLFLHGNRISSVPERAFRGLHSLDRLLLHQNRVAHVHPHAFRDLGRLMTLYLFANNLSALPTEALAPLRALQYLRLNDNPWVCDCRARPLWAWLQKFRGSSSEVPCSLPQRLAGRDLKRLAANDLQGCAVATGPYHPIWTGRATDEEPLGLPKCCQPDAADKA
- block of binding of NogoA, NogoB, NogoC, MAG and OM-gp to Nogo receptor-1 [4]: block

B2: 5B10: murine monoclonal anti-Nogo receptor-1 antibody, immunogen rat Nogo receptor-1 residues 110-125, ATCC PTA-4588 (antibody, V domains shown)
VH: LQXSGAEIVMPGTAVTMSCKASGYTFTDFWMHWVKQRPGQGLEWIGAIDPSDSYSRINQKFKGKATLTVDESSSTAYMQLSSLTSEDSAVYYCARRITEAGAWFAYWGQGTTVT
VL: MKLPVRLLVLMFWIPASSSDVVMTQTPLSLPVSLGDQASISCRSSQSLVHSNGYTYLHWYLQRPGQSPKLLIYKVSNRFSGVPDRFSGSGSGTDFTLKISRVDAEDLGVYFCSQSTHVPYTFGGGTKLEIKRADAAPTVSISHH
modifications: not fully specified; 5B10 heavy chain; 5B10 light chain
- inhibition of binding of OM-gp to sNogoR344-Fc (OM-gp + sNogoR344-Fc): inhibited
- binding to polypeptide p-617 (SEQ ID NO: 1) [5]: specifically bound
- inhibition of binding of MAG to sNogoR344-Fc (MAG + sNogoR344-Fc): inhibited
- protection of DRG neurons from myelin-mediated inhibition of neurite outgrowth [6]: protected
- inhibition of binding of Nogo66 to sNogoR344-Fc (Nogo66 + sNogoR344-Fc): inhibited
